Consider 2 compounds from US9198915B2, “Methods involving aldose reductase inhibitors” (The Board of Regents of The University of Texas System, priority 2007, dated 2015).

Where only a bound is given, the exact number is not on record here.

Data set [1] has as its target AR (Homo sapiens, UniProt P15121). Conditions: substrate of AR, in the presence of NADPH; cited from earlier work.
Data set [2] deals with IL-6, IL-8 and PGE2. The experiment in a line: RW-induced IL-6, IL-8 and PGE2 secretion by SAEC (ELISA). Type of data set: cell-based, human. The settings on record: siRNA 100 nM, 48 h, then RW 50 μg/ml 24 h. The method, then:
The SAEC were plated in 6-well plates at a density of 2×10^5 cells/well in triplicate for each group. After 24 hours, the medium was replaced with serum-free SABM with or without zopolrestat (20 μM). The growth-arrested and AR ablated cells were stimulated with RW (50 μg/mL) for another 24 hours. The medium was collected from each well, centrifuged and supernatant was analyzed for PGE2 (Cayman Chemical Co., Ann Arbor, Mich.); IL-6 (Diaclone, Stamford, Conn.) and IL-8 (R&D systems Inc, Minneapolis, Minn.) by using an ELISA kits according to the manufacturer's instructions.
Background: An ELISA detects its analyte on a solid surface through an enzyme-linked reagent.

In data set [3] the test system is AR. The experiment in a line: RNA interference ablation of AR in SAEC (AR protein by Western blot). Conditions: transient transfection of SAEC, 100 nM, 48 h. Type of data set: cell-based, human. How it is done: The ablation of AR mRNA was essentially carried out as described in the art. Briefly, 2×10^5 SAECs were plated in a 6-well plate and grown until ˜80% confluency. The cells were incubated with serum-free medium containing the AR-siRNA ([…] (SEQ ID NO:1)) or scrambled siRNA (AAAATCTCCCTAAATCA TACA (SEQ ID NO:2); control) to a final concentration of 100 nM and the RNAiFect™ transfection reagent (Qiagen). The cells were cultured for 48 h at 37° C., and AR expression was determined by measuring AR protein by Western blot analysis using anti-AR antibodies.
The ablation of AR mRNA was essentially carried out as described in the art. Briefly, 2×10^5 SAECs were plated in a 6-well plate and grown till >80% confluency. The cells were incubated with serum-free medium containing the AR-siRNA ([…]) (SEQ ID NO:1) or scrambled siRNA (AAAATCTCCCTAAATCA TACA (SEQ ID NO:2); control) to a final concentration of 100 nM and the RNAiFect™ transfection reagent (Qiagen). The cells were cultured for 48 h at 37° C., and AR expression was determined by measuring AR protein by Western blot analysis using anti-AR antibodies.

Data set [4] concerns IL-6, IL-8 and PGE2. The data set can be described thus: TNF-α- and LPS-induced IL-6, IL-8 and PGE2 secretion by SAEC (ELISA). Type of data set: cell-based, human. The settings on record: siRNA 100 nM 48 h, then TNF-α or LPS 24 h.

Take `CCCCCC(O)/C=C/C=O` (stereo not shown) [HNE, 4-hydroxynonenal]: the Km in data set [1] is 10 to 30 µM.
On to “AATCGGTGTCTCCAACTTCAA (SEQ ID NO:1) (listed as DNA, chemistry not given here) [AR siRNA, siRNA used to ablate AR mRNA in SAEC, 100 nM]”, for which the “RW-induced synthesis of IL-6, IL-8 and PGE2 after siRNA ablation of AR” value in data set [2] is reported as “significantly prevented”. Besides, in data set [3], the AR protein abolished is listed as > 95%. For the same compound, the “TNF-α and LPS-induced IL-6, IL-8 and PGE2 production after ablation of AR” value in data set [4] is given as “significantly prevented”.

The Km is the substrate concentration at which the rate is half of its maximum.
